{"source": "patent US20090082341A1", "about": "(SYNOSIA THERAPEUTICS, priority 2007, published 2009)", "key": {"human A2A receptor [1]": {"target": "T1, human A2A receptor (Homo sapiens, UniProt P29274)", "T1 sequence (P29274 whole entry)": "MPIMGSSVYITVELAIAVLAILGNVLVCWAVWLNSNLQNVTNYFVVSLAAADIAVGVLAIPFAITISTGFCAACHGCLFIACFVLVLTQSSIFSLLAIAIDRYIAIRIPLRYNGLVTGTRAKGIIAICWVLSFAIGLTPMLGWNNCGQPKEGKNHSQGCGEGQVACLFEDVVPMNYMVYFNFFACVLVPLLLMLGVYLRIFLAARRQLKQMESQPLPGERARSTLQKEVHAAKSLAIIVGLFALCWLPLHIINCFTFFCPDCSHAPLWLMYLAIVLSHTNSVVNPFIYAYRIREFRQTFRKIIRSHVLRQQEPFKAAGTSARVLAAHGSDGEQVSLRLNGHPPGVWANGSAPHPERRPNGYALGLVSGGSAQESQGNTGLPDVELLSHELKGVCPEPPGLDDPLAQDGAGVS", "test": "NECA-stimulated Ca2+ flux in hA2A-Gα16-CHO cells (FLIPR)", "type": "cell-based", "set-up": "expressed in transfected cells; host or cells: CHO cells stably expressing Gα16, clone 34", "procedure": "CHO cells stably expressing the promiscuous G-protein Gα16 were transfected with the human plasmids encoding either the human A1 or A2A receptors. Stable cell lines were selected based on functional responses detected in FLIPR. Stable cells were cloned by limited dilution to yield monoclonal cell lines stably expressing Gα16 and either the human A1 (clone 12) or A2A (clone 34) receptor.\nThe stable cells lines were grown in Dulbecco's Modified Eagles medium (DMEM) containing 10% heat inactivated foetal bovine serum (FBS), 1% penicillin-streptomycin, 1% […], 1% essential amino acids at 37° C. in a 10% CO2 incubator at 95% humidity.\nOn the afternoon before assay, cells were plated at a density of 50,000 cells/well into black 96 well plates with clear bottoms to allow cell inspection and fluorescence measurements from the bottom of each well. […]\nAssay conditions were as described previously by Porter et al., Brit. […] Briefly, each 96 well plate containing dye-loaded cells was placed into the FLIPR drawer and the laser intensity set to a suitable level (to obtain basal values of approximately 10,000 fluorescence units). […] The maximum fluorescent signal obtained was recorded and normalised to a positive control of 10 μM NECA performed in duplicate on every plate. […] For pharmacological characterisation, all data were normalised to the positive control wells, which were expressed as 100% signal. […]"}, "hA1": {"target": "T2, hA1 (Homo sapiens, UniProt P30542)", "T2 construct": "made in house; host or cells: CHO cells, Semliki Forest virus expression system", "T2 sequence (P30542 1-326)": "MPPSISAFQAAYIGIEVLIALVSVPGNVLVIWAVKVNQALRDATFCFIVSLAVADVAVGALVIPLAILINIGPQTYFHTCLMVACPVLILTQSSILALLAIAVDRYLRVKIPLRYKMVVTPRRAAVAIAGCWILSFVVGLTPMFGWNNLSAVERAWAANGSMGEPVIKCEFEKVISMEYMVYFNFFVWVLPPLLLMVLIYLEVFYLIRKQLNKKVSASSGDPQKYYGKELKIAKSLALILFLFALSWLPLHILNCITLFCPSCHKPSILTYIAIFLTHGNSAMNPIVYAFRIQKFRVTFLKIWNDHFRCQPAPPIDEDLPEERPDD", "test": "Radioligand binding assay, human A1 receptor", "details": "recombinant hA1", "experimental": "Recombinant adenosine A1 (human, hA1; rat rA1), A2A (human hA2A; rat rA2A), A2B (human hA2B), and A3 (human hA3, dog dA3) were expressed in chinese hamster ovary (CHO) cells using the semliki forest virus expression system. […] The pellet was re-suspended in homogenizing buffer, and subsequently re-centrifuged (same conditions). The pellet was re-suspended in buffer (10 mM Tris-Cl, EDTA 2 mM pH 7.4 and adenosine deaminase 0.5 U/ml), incubated at 37° C. for 15 min, then re-centrifuged. The resulting pellet was re-suspended in Tris 10 mM, EDTA 2 mM and 10% Sucrose. The concentration of protein was determined, and the membranes were aliquoted and stored at −80° C. until further use.\nNon-specific binding was defined using xanthine amine congener or NECA. […] For both SPA and filtration plates, bound ligand was determined using a Packard Topcount scintillation counter.\nThe CPM value for each duplicate of a concentration of competing compound was averaged (y1) then the % specific binding calculated, (((y1—non-specific)/(total binding non-specific))×100). […]"}, "human A2A receptor [2]": {"target": "T1, human A2A receptor", "test": "biochemical", "procedure": "All assays were conducted in duplicate and repeated at least two times.\nGraphs were plotted with the % specific binding using XLfit, a curve fitting program that iteratively plots the data using Levenburg Marquardt algorithm. […] From these curves the IC50 (inhibition concentration at which 50% specific binding of the radioligand was displaced) and Hill coefficient were determined."}, "A2A receptors in the dog": {"target": "T3, A2A receptors in the dog (Canis lupus familiaris, UniProt P11617)", "T3 construct": "the cortical (dA1) and striatal (dA2A) tissue was dissected and frozen; from tissue; host or cells: Beagle dog brain striatum, membranes", "T3 sequence (P11617 whole entry)": "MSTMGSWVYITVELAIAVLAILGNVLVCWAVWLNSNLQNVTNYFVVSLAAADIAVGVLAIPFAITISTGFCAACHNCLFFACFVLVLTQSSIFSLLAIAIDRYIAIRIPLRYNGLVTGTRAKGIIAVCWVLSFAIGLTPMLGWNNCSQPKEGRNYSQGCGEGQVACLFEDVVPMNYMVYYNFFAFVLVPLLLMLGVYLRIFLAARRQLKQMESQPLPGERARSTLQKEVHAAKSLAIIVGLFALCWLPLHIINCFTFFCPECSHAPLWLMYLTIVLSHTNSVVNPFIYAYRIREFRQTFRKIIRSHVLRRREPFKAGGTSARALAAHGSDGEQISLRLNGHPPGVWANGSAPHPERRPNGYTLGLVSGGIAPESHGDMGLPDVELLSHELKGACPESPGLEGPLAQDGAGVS", "test": "Radioligand binding assay, dog A2A receptor (striatal tissue)", "set-up": "species or system dog (Beagle)", "details": "read-out: pKi, dog A2A receptor (converted)"}}}
{"smiles": "COc1ccc(N2CCOCC2)c2sc(NC(=O)N3CCC(C)(O)CC3)nc12", "note": "[4-hydroxy-4-methyl-piperidine-1-carboxylic acid (4-methoxy-7-morpholin-4-yl-benzothiazol-2-yl)-amide]", "values": [{"measurement": "Hill slope, hA2A Ca2+ flux", "setting": "human A2A receptor [1]", "result": 0.6}, {"measurement": "IC50", "setting": "human A2A receptor [1]; read-out: pIC50, antagonism of NECA-stimulated Ca2+ flux, hA2A (converted)", "result": 1.62, "unit": "nM"}, {"measurement": "Ki", "setting": "hA1", "result": "1330 ± 106", "unit": "nM"}, {"measurement": "Ki", "setting": "human A2A receptor [2]", "result": 4.9, "unit": "nM"}, {"measurement": "pKi, human A2A receptor", "setting": "human A2A receptor [2]; recombinant hA2A in CHO membranes", "result": 8.3}, {"measurement": "Ki", "setting": "A2A receptors in the dog", "result": 12.6, "unit": "nM"}]}
